Measurements reported in patent US20250034216A1, “STEREOSELECTIVE COVALENT LIGANDS FOR ONCOGENIC AND IMMUNOLOGICAL PROTEINS” (The Scripps Research Institute, priority 2021, published 2025).

Experiments:
Test in all cases: IA-DTB cysteine engagement
Assay type in all cases: binding
Conditions in all cases: 22Rv1 cells, 20 μM probe, 1 h, relative to DMSO
SLC25A16_C311 = molecular target: T1, SLC25A16_C311 (Homo sapiens, UniProt P16260)
T1 construct: endogenous in cells; host or cells: 22Rv1
T1 sequence (P16260 1-332): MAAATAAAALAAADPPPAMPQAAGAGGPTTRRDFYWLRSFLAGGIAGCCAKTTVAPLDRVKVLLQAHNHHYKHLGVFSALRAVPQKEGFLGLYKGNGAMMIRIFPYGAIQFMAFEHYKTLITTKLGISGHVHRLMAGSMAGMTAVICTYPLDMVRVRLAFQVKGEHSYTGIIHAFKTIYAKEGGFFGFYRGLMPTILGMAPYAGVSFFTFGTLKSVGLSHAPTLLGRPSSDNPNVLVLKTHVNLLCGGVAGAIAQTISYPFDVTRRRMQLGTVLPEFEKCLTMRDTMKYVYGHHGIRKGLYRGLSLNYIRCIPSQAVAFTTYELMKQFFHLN
In short: (§1)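 First, cells are exposed to electrophilic probes in situ. Next, lysates are labeled with IA-DTB (1 h, ambient temperature), reduced, alkylated and trypsin-digested. Then, IA-DTB peptides are enriched on streptavidin, TMT-labeled and analyzed, with ratios taken against DMSO channels.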

ALB_C269 = molecular target: T2, ALB_C269 (Homo sapiens, UniProt P02768)
T2 construct: endogenous in cells; host or cells: 22Rv1
In short: as §1

ABCB8_C462 = molecular target: T3, ABCB8_C462 (Homo sapiens, UniProt Q9NUT2)
T3 construct: endogenous in cells; host or cells: 22Rv1
T3 sequence (Q9NUT2 26-735): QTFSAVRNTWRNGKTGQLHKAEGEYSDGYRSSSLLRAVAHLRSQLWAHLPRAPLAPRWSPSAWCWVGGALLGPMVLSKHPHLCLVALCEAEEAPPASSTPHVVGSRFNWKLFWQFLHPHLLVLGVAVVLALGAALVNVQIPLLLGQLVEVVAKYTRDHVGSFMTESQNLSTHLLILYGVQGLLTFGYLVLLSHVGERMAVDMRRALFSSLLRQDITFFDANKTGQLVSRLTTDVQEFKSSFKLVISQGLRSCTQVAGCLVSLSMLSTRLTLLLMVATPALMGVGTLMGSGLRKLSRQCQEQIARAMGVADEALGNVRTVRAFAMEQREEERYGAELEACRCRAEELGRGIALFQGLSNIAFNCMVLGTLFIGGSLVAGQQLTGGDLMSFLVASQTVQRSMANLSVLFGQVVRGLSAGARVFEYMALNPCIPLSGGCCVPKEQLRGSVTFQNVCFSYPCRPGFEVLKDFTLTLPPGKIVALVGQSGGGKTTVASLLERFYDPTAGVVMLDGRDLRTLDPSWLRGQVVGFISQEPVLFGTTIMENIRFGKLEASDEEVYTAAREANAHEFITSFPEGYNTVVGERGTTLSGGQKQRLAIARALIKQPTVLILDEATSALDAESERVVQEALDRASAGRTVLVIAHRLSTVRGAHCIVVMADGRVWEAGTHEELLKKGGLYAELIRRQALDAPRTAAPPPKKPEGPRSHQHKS
In short: as §1

T2 sequence (P02768 25-609): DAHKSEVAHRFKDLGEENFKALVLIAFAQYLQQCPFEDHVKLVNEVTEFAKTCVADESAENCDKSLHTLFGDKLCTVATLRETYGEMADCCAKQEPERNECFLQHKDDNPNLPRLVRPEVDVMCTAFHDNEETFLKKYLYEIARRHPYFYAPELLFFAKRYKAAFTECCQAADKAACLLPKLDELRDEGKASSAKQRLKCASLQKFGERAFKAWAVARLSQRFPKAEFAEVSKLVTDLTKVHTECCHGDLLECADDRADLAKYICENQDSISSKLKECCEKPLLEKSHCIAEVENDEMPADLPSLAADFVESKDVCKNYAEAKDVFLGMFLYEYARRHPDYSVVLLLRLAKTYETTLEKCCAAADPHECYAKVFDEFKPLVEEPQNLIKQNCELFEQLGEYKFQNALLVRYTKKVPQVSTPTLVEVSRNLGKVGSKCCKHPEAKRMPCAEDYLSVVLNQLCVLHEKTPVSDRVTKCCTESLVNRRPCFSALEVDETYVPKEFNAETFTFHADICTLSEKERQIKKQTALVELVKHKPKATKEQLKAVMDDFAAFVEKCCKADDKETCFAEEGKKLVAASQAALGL

Row | % engagement SLC25A16_C311 (SLC25A16_C311) [%] | % engagement ALB_C269 (ALB_C269) [%] | % engagement ABCB8_C462 (ABCB8_C462) [%] | SMILES
1 | 38.5 | 79.5 | 73.25 | C=CC(=O)N1C[C@H](c2ccc(Br)cc2)[C@H]1C(=O)Nc1cccc2cccnc12 [MY-3B, (2S,3S)-1-acryloyl-3-(4-bromophenyl)-N-(quinolin-8-yl)azetidine-2-carboxamide]
2 | 37.5 | 47.5 | 39 | C=CC(=O)N1C[C@H](c2ccc(Br)cc2)[C@@H]1C(=O)Nc1cccc2cccnc12 [MY-1B, (2R,3S)-1-acryloyl-3-(4-bromophenyl)-N-(quinolin-8-yl)azetidine-2-carboxamide]
3 | 32 | 86 | 19.5 | C=CC(=O)N1C[C@H](c2ccc(Br)cc2)[C@H]1C(=O)Nc1cccc2cccnc12 [MY-3A, (2S,3S)-1-acryloyl-3-(4-bromophenyl)-N-(quinolin-8-yl)azetidine-2-carboxamide]
4 | 79 | 42.5 | 28.5 | C=CC(=O)N1C[C@@H](c2ccc(Br)cc2)[C@H]1C(=O)Nc1cccc2cccnc12 [MY-1A, (2S,3R)-1-acryloyl-3-(4-bromophenyl)-N-(quinolin-8-yl)azetidine-2-carboxamide]
